Data on five molecules can be found in patent publication US7214396B2, “Confectionery product containing functional ingredients and method of making and using” (Nestec S.A., priority 2000, dated 2007).

The conditions of data set [1]: cited from earlier work; for solubility: water at 37° C.
Data set [2] can be described thus: cooling effect: instant fall of temperature when powder is added to water. The format is physicochemical. Conditions: 150 g of powder added to 50 ml of water at 37° C. How it is done: A suitable monosaccharide polyol is preferably selected from the group consisting of xylitol, erythritol, sorbitol or a combination thereof. […] (Instant fall of temperature when 150 g of powder are added to 50 ml of water at 37° C.).

For the molecule `OC[C@@H](O)[C@@H](O)CO` [Erythritol], the “water solubility compared with other polyols” value in data set [1] (anhydride crystals) is “less water soluble”.
As for `OC[C@H]1O[C@@](CO)(O[C@H]2O[C@H](CO)[C@@H](O)[C@H](O)[C@H]2O)[C@@H](O)[C@@H]1O` [sucrose, reference compound], in data set [1], the solubility entry is “under 230 g/100 g”.
In the case of `OC[C@@H](O)[C@H](O)[C@@H](O)CO` [xylitol], in data set [1], the solubility is given as 250–260 g/100 g. The “measured cooling effect (instant fall of temperature)” value in data set [2] is “about −20 °C”.
For `OC[C@@H](O)[C@@H](O[C@H]1O[C@H](CO)[C@@H](O)[C@H](O)[C@H]1O)[C@H](O)[C@@H](O)CO` [maltitol, reference compound], in data set [1], the solubility result is “less than 205 g/100 g”.
As for `OC[C@@H](O)[C@@H](O)[C@H](O)[C@@H](O)CO` [sorbitol], in data set [1], the solubility is given as 330–340 g/100 g. Moreover, the “measured cooling effect (instant fall of temperature)” value in data set [2] was “about −22 °C”.
